Results on 29 compounds are retold here after patent US20100076015A1, “Aminopyridine Derivatives” (VANTIA LIMITED, priority 2008, published 2010).

Each structure is given as a SMILES string.

T1 sequence (P06870 25-262): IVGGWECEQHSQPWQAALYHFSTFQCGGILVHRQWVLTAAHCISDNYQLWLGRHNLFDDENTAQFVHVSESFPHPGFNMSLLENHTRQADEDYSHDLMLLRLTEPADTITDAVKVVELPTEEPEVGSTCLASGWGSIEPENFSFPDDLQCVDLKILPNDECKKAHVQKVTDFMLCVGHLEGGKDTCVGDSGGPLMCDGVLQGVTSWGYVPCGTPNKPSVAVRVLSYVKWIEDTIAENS

This experiment has as its target T1, Human KLK1 (Homo sapiens, UniProt P06870).
T1 construct: purchased Callbiochem (Calbiochem)
Kind of experiment: Determination of the IC50 for KLK1 (fluorogenic substrate H-DVal-Leu-Arg-AFC). The format is biochemical. The conditions noted are these: 37° C. A digest of the protocol: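 Human KLK1 incubated at 37° C with fluorogenic substrate H-DVal-Leu-Arg-AFC and a range of test compound concentrations. Residual activity taken as initial reaction rate from absorbance change at 410 nm; IC50 derived from these rates.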
Turning to `Cc1nc(N)ccc1CNC(=O)[C@H](Cc1ccc(Cl)c(Cl)c1)NC(=O)[C@H]1CC(F)(F)CN1` [Example 192, (R)-4,4-Difluoro-pyrrolidine-2-carboxylic acid [(S)-1-[(6-amino-2-methyl-pyridin-3-ylmethyl)-carbamoyl]-2-(3,4-dichloro-phenyl)-ethyl]-amide], the IC50 (commonly the midpoint of a concentration-inhibition curve) amounted to 60.4 nM. The figure for `CN[C@@H](Cc1ccccc1)C(=O)N[C@H](Cc1ccc(Cl)c(Cl)c1)C(=O)NCc1ccc(N)nc1C` [Example 193, (S)—N-[(R)-1-[(6-Amino-2-methyl-pyridin-3-ylmethyl)-carbamoyl]-2-(3,4-dichloro-phenyl)-ethyl]-2-methylamino-3-phenyl-propionamide] is 10.9 nM; for `Cc1nc(N)ccc1CNC(=O)[C@H](Cc1ccc(Cl)c(Cl)c1)NC(=O)[C@H](N)Cc1ccc(F)cc1` [Example 194, (R)-2-Amino-N-[(S)-1-[(6-amino-2-methyl-pyridin-3-ylmethyl)-carbamoyl]-2-(3,4-dichloro-phenyl)-ethyl]-3-(4-fluoro-phenyl)-propionamide] it is 5.1 nM; for `Cc1nc(N)ccc1CNC(=O)[C@H](Cc1ccc(Cl)c(Cl)c1)NC(=O)[C@H](N)Cc1ccc(Cl)cc1` [Example 195, (R)-2-Amino-N-[(S)-1-[(6-amino-2-methyl-pyridin-3-ylmethyl)-carbamoyl]-2-(3,4-dichloro-phenyl)-ethyl]-3-(4-chloro-phenyl)-propionamide] it is 5.4 nM.

Compound `Cc1nc(N)ccc1CNC(=O)[C@H](Cc1ccc(Cl)c(Cl)c1)NC(=O)[C@H](N)Cc1cccnc1` [Example 196, (R)-2-Amino-N-[(S)-1-[(6-amino-2-methyl-pyridin-3-ylmethyl)-carbamoyl]-2-(3,4-dichloro-phenyl)-ethyl]-3-pyridin-3-yl-propionamide] gave a concentration for half-maximal inhibition (IC50) of 23.2 nM.

Turning to `Cc1nc(N)ccc1CNC(=O)[C@@H](Cc1ccc(Cl)c(Cl)c1)NC(=O)[C@@H](N)c1ccccc1` [Example 197, (R)—N-(6-Amino-2-methyl-pyridin-3-ylmethyl)-2-((S)-2-amino-2-phenyl-acetylamino)-3-(3,4-dichloro-phenyl)-propionamide], the IC50 turned out to be 84.6 nM. The figure for `Cc1nc(N)ccc1CNC(=O)[C@H](Cc1ccc(Cl)c(Cl)c1)NC(=O)[C@H](N)C1CCCCC1` [Example 198, (S)-2-((R)-2-Amino-2-cyclohexyl-acetylamino)-N-(6-amino-2-methyl-pyridin-3-ylmethyl)-3-(3,4-dichloro-phenyl)-propionamide] is 28 nM; for `Cc1nc(N)ccc1CNC(=O)[C@H](Cc1ccc(Cl)c(Cl)c1)NC(=O)[C@H](N)C(C)(C)C` [Example 199, (R)-2-Amino-N-[(S)-1-[(6-amino-2-methyl-pyridin-3-ylmethyl)-carbamoyl]-2-(3,4-dichloro-phenyl)-ethyl]-3,3-dimethyl-butyramide] it is 1.4 nM. Regarding `Cc1nc(N)ccc1CNC(=O)[C@H](Cc1ccc(Cl)c(Cl)c1)NC(=O)[C@H](N)CC1CCCCC1` [Example 200, (R)-2-Amino-N-[(S)-1-[(6-amino-2-methyl-pyridin-3-ylmethyl)-carbamoyl]-2-(3,4-dichloro-phenyl)-ethyl]-3-cyclohexyl-propionamide], the half-inhibitory concentration (IC50) was found to be 22.1 nM. The figure for `Cc1nc(N)ccc1CNC(=O)[C@H](Cc1ccc(Cl)c(Cl)c1)NC(=O)[C@H]1CCCCN1` [Example 201, (R)-Piperidine-2-carboxylic acid [(S)-1-[(6-amino-2-methyl-pyridin-3-ylmethyl)-carbamoyl]-2-(3,4-dichloro-phenyl)-ethyl]-amide] is 1.3 nM; for `Cc1nc(N)ccc1CNC(=O)[C@H](Cc1ccc(Cl)c(Cl)c1)NC(=O)[C@H]1CCc2ccccc2N1` [Example 202, (R)-1,2,3,4-Tetrahydro-quinoline-2-carboxylic acid [(S)-1-[(6-amino-2-methyl-pyridin-3-ylmethyl)-carbamoyl]-2-(3,4-dichloro-phenyl)-ethyl]-amide] it is 22.5 nM; for `CCC(C)[C@@H](NC)C(=O)N[C@@H](Cc1cccc2ccccc12)C(=O)NCc1ccc(N)nc1C` (stereo partly drawn) [Example 203, (R)-3-Methyl-2-methylamino-pentanoic acid {(S)-1-[(6-amino-2-methyl-pyridin-3-ylmethyl)-carbamoyl]-2-naphthalen-1-yl-ethyl}-amide] it is 4.5 nM. The figure for `Cc1nc(N)ccc1CNC(=O)[C@H](Cc1ccc(F)cc1)NC(=O)[C@H]1CCCN1C` [Example 204, (R)-1-Methyl-pyrrolidine-2-carboxylic acid [(S)-1-[(6-amino-2-methyl-pyridin-3-ylmethyl)-carbamoyl]-2-(4-fluoro-phenyl)-ethyl]-amide] is 5.9 nM; for `Cc1nc(N)ccc1CNC(=O)[C@H](Cc1ccc(F)c(F)c1)NC(=O)[C@H]1CCCN1C` [Example 205, (R)-1-Methyl-pyrrolidine-2-carboxylic acid [(S)-1-[(6-amino-2-methyl-pyridin-3-ylmethyl)-carbamoyl]-2-(3,4-difluoro-phenyl)-ethyl]-amide] it is 6.7 nM; for `CCC(C)[C@@H](N)C(=O)N[C@@H](CC1CCCC2CCCCC21)C(=O)NCc1c(C)cc(N)nc1C` (stereo partly drawn) [Example 208, (R)-2-Amino-3-methyl-pentanoic acid [(S)-1-[(6-amino-2,4-dimethyl-pyridin-3-ylmethyl)-carbamoyl]-2-(decahydro-naphthalen-1-yl)-ethyl]-amide] it is 32.1 nM.

Regarding `CCC(C)[C@@H](N)C(=O)N[C@@H](Cc1cccc2ccccc12)C(=O)NCc1cnc(N)c(C)c1` (stereo partly drawn) [Example 209, (R)-2-Amino-3-methyl-pentanoic acid {(S)-1-[(6-amino-5-methyl-pyridin-3-ylmethyl)-carbamoyl]-2-naphthalen-1-yl-ethyl}-amide], inhibition was half-maximal at 36 nM (IC50). As for `CS(=O)(=O)N1CCC[C@@H]1C(=O)N[C@@H](Cc1ccc(Cl)c(Cl)c1)C(=O)NCc1ccc(N)nc1` [Example 210, (R)-1-Methanesulfonyl-pyrrolidine-2-carboxylic acid [(S)-1-[(6-amino-pyridin-3-ylmethyl)-carbamoyl]-2-(3,4-dichloro-phenyl)-ethyl]-amide], the figure is 39 nM; as for `CCC(C)[C@@H](NS(C)(=O)=O)C(=O)N[C@@H](Cc1ccc(Cl)c(Cl)c1)C(=O)NCc1ccc(N)nc1` (stereo partly drawn) [Example 211, (R)-2-Methanesulfonylamino-3-methyl-pentanoic acid [(S)-1-[(6-amino-pyridin-3-ylmethyl)-carbamoyl]-2-(3,4-dichloro-phenyl)-ethyl]-amide], 0.29 nM; as for `C[C@H](C(=O)N[C@@H](Cc1ccc(Cl)c(Cl)c1)C(=O)NCc1ccc(N)nc1)N(C)S(C)(=O)=O` [Example 212, (R)—N-[(S)-1-[(6-Amino-pyridin-3-ylmethyl)-carbamoyl]-2-(3,4-dichloro-phenyl)-ethyl]-2-(methanesulfonyl-methyl-amino)-propionamide], 29.8 nM. The figure for `CCC(C)[C@@H](N)C(=O)N[C@@H](C(=O)NCc1ccc(N)nc1)C(C1CCCCC1)C1CCCCC1` (stereo partly drawn) [Example 214, (R)-2-Amino-3-methyl-pentanoic acid {(R)-1-[(6-amino-pyridin-3-ylmethyl)-carbamoyl]-2,2-dicyclohexyl-ethyl}-amide] is 16.9 nM.

Compound `Nc1ccc(CNC(=O)[C@H](NC(=O)[C@@H]2CCCN2)C(C2CCCCC2)C2CCCCC2)cn1` [Example 215, (S)-Pyrrolidine-2-carboxylic acid {(R)-1-[(6-amino-pyridin-3-ylmethyl)-carbamoyl]-2,2-dicyclohexyl-ethyl}-amide] yielded a half-maximal inhibitory concentration (IC50) of 12.6 nM. As for `Nc1ccc(CNC(=O)[C@H](NC(=O)[C@@H](N)Cc2ccccc2)C(C2CCCCC2)C2CCCCC2)cn1` [Example 216, (S)-2-Amino-N-{(R)-1-[(6-amino-pyridin-3-ylmethyl)-carbamoyl]-2,2-dicyclohexyl-ethyl}-3-phenyl-propionamide], the figure is 24.4 nM; as for `CC(C)(C)[C@H](N)C(=O)N[C@@H](C(=O)NCc1ccc(N)nc1)C(C1CCCCC1)C1CCCCC1` [Example 217, (S)-2-Amino-N-{(R)-1-[(6-amino-pyridin-3-ylmethyl)-carbamoyl]-2,2-dicyclohexyl-ethyl}-3,3-dimethyl-butyramide], 29.3 nM; as for `CN[C@@H](C)C(=O)N[C@@H](C(=O)NCc1ccc(N)nc1)C(C1CCCCC1)C1CCCCC1` [Example 218, (S)—N-{(R)-1-[(6-Amino-pyridin-3-ylmethyl)-carbamoyl]-2,2-dicyclohexyl-ethyl}-2-methylamino-propionamide], 35.3 nM.

Take `CCC(C)[C@H](NC)C(=O)N[C@@H](C(=O)NCc1ccc(N)nc1)C(C1CCCCC1)C1CCCCC1` (stereo partly drawn) [Example 219, (S)-3-Methyl-2-methylamino-pentanoic acid {(R)-1-[(6-amino-pyridin-3-ylmethyl)-carbamoyl]-2,2-dicyclohexyl-ethyl}-amide]: it took 3.6 nM to reach half-maximal inhibition (IC50).

Take `NCC(=O)N[C@@H](C(=O)NCc1ccc(N)nc1)C(C1CCCCC1)C1CCCCC1` [Example 220, (R)-2-(2-Amino-acetylamino)-N-(6-amino-pyridin-3-ylmethyl)-3,3-dicyclohexyl-propionamide]: the midpoint of inhibition, the IC50, lay at 55.5 nM. The figure for `CNCC(=O)N[C@@H](C(=O)NCc1ccc(N)nc1)C(C1CCCCC1)C1CCCCC1` [Example 221, (R)—N-(6-Amino-pyridin-3-ylmethyl)-3,3-dicyclohexyl-2-(2-methylamino-acetylamino)-propionamide] is 50.5 nM; for `CN(C)CC(=O)N[C@@H](C(=O)NCc1ccc(N)nc1)C(C1CCCCC1)C1CCCCC1` [Example 222, (R)—N-(6-Amino-pyridin-3-ylmethyl)-3,3-dicyclohexyl-2-(2-dimethylamino-acetylamino)-propionamide] it is 39.7 nM; for `CN1CCC[C@H]1C(=O)N[C@@H](C(=O)NCc1ccc(N)nc1)C(C1CCCCC1)C1CCCCC1` [Example 223, (S)-1-Methyl-pyrrolidine-2-carboxylic acid {(R)-1-[(6-amino-pyridin-3-ylmethyl)-carbamoyl]-2,2-dicyclohexyl-ethyl}-amide] it is 17.4 nM.
